The record followed here is patent publication US20190375708A1 (VenatoRx Pharmaceuticals, Inc., priority 2018, published 2019).

As a reminder, the CC50 is the concentration at which the toxic effect on the cells reaches its halfway point. A word on the EC50: it is the concentration that produces a half-maximal response.

Data set [1] can be described thus: In vitro cytotoxicity assay (MTT cell viability) in HepG2 cells. The conditions noted are these: human. In kind it is cell-based, human. The method, boiled down: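 CC50 values reflect loss of HepG2 viability after a 7-day exposure at 37 °C, 5% CO2. After 3-4 h with MTT, solubilized formazan was quantified at 492 nm relative to vehicle wells.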
Data set [2] relates to HBV replication in HepAD38 cells. Description: Anti-HBV replication assay in HepAD38 cells (QPCR of extracellular HBV DNA). Conditions: Hepatitis B virus, 168 h, 7 days incubation, extracellular HBV DNA by QPCR, read-out: Anti-HBV EC50. In kind it is cell-based, HBV (genotype D, serotype ayw). Summed up: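 EC50 values reflect 50% reduction of extracellular HBV DNA, measured by QPCR after 7-day treatment of tetracycline-deprived HepAD38 cells with compound […].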

On to `Cc1cc(NC(=O)c2c(C)c(C(=O)C(=O)NC3CC4CCC(C3)S4(=O)=O)n(C)c2C)ccc1F` (centres unmarked) [Example 624, 5-(2-((8,8-dioxido-8-thiabicyclo[3.2.1]ctan-3-yl)amino)-2-oxoacetyl)-N-(4-fluoro-3-methylphenyl)-1,2,4-trimethyl-1H-pyrrole-3-carboxamide], for which the CC50 at 7 days in data set [1] was above 30 µM. Further, the EC50 in data set [2] was below 0.05 µM.

Consider `CC(C)(CO)NC(=O)C(=O)c1cc(C(=O)Nc2ccc(F)c(C(F)F)c2)c2n1CCCC2` [Example 429, N-(3-(difluoromethyl)-4-fluorophenyl)-3-(2-((1-hydroxy-2-methylpropan-2-yl)amino)-2-oxoacetyl)-5,6,7,8-tetrahydroindolizine-1-carboxamide], for which, in data set [1], the half-maximal cytotoxic concentration (CC50) at 7 days is above 30 µM. For the same compound, in data set [2], the EC50 lay within 0.05 to 0.499 µM.

Compound `Cc1cc(NC(=O)c2c(C)c(C(=O)C(=O)NCc3csc(N)n3)n(C)c2C)ccc1F` [Example 111, 5-(2-(((2-aminothiazol-4-yl)methyl)amino)-2-oxoacetyl)-N-(4-fluoro-3-methylphenyl)-1,2,4-trimethyl-1H-pyrrole-3-carboxamide] gave a CC50 at 7 days in data set [1] above 30 µM. Further, the EC50 in data set [2] was below 0.05 µM.

Compound `COCC1(CNC(=O)C(=O)c2c(C)c(C(=O)Nc3ccc(F)c(C)c3)c(C)n2C)CCCCC1` [Example 358, N-(4-fluoro-3-methylphenyl)-5-(2-(((1-(methoxymethyl)cyclohexyl)methyl)amino)-2-oxoacetyl)-1,2,4-trimethyl-1H-pyrrole-3-carboxamide] gave a 50% cytotoxic concentration (CC50) at 7 days in data set [1] above 30 µM. In addition, the concentration giving a half-maximal response (EC50) in data set [2] is below 0.05 µM.

`Cc1noc([C@H](C)NC(=O)C(=O)c2c(Cl)c(C(=O)Nc3ccc(F)c(C)c3)c3n2CCCC3)n1` [Example 494, (S)-2-chloro-N-(4-fluoro-3-methylphenyl)-3-(2-((1-(3-methyl-1,2,4-oxadiazol-5-yl)ethyl)amino)-2-oxoacetyl)-5,6,7,8-tetrahydroindolizinee-1-carboxamide] yielded a CC50 at 7 days in data set [1] of 5 to 30 µM. Also, in data set [2], the EC50 was below 0.05 µM.

Take `Cc1cc(NC(=O)c2c(C)c(C(=O)C(=O)NC3CCN(c4cnccn4)CC3)n(C)c2C)ccc1F` [Example 659, N-(4-fluoro-3-methylphenyl)-1,2,4-trimethyl-5-(2-oxo-2-((1-(pyrazin-2-yl)piperidin-4-yl)amino)acetyl)-1H-pyrrole-3-carboxamide]: the CC50 at 7 days in data set [1] was above 30 µM. In addition, the concentration giving a half-maximal response (EC50) in data set [2] was below 0.05 µM.

`Cc1cc(NC(=O)c2c(C)c(C(=O)C(=O)N[C@H]3CC[C@@H](O)CC3)n(CCF)c2C)ccc1F` [Example 210, N-(4-fluoro-3-methylphenyl)-1-(2-fluoroethyl)-5-(2-(((1s,4s)-4-hydroxycyclohexyl)amino)-2-oxoacetyl)-2,4-dimethyl-1H-pyrrole-3-carboxamide]: the half-maximal cytotoxic concentration (CC50) at 7 days in data set [1] is above 30 µM. Also, the concentration giving a half-maximal response (EC50) in data set [2] is below 0.05 µM.

In data set [1], `Cc1cc(NC(=O)c2c(C)c(C(=O)C(=O)NC(C)(C)CO)n(C)c2Cl)ccc1F` [Example 391, 2-chloro-N-(44-fluoro-3-methylphenyl)-5-(2-((1-hydroxy-2-methylpropan-2-yl)amino)-2-oxoacetyl)-1 4-dimethyl-1H-pyrrole-3-carboxamide] showed a 50% cytotoxic concentration (CC50) at 7 days above 30 µM. Also, the EC50 in data set [2] is above 1 µM.

For the compound `Cc1c(C(=O)Nc2ccc(F)nc2)c(C)n(C)c1C(=O)C(=O)N[C@]1(C)CC[C@H](O)CC1` [Example 240, N-(6-fluoropyridin-3-yl)-5-(2-(((1s,4s)-4-hydroxy-1-methylcyclohexyl)amino)-2-oxoacetyl)-1,2,4-trimethyl-1H-pyrrole-3-carboxmaide], the CC50 at 7 days in data set [1] was above 30 µM. Further, the concentration for a half-maximal effect (EC50) in data set [2] fell in the range of 0.05 to 0.499 µM.

`Cc1cc(NC(=O)c2c(Cl)c(C(=O)C(=O)NCC(C)(C)CO)n3c2CCCC3)cnc1F` [Example 525, 2-chloro-N-(6-fluoro-5-methylpyridin-3-yl)-3-(2-((3-hydroxy-2,2-dimethylpropyl)amino)-2-oxoacetyl)-5,6,7,8-tetrahydroindolizine-1-carboxamide] yielded a CC50 at 7 days in data set [1] above 30 µM. Further, the concentration giving a half-maximal response (EC50) in data set [2] is above 1 µM.

On to `Cc1cc(NC(=O)c2c(C)c(C(=O)C(=O)N[C@H]3CC[C@](C)(O)CC3)n3c2CCCC3)ccc1F` [Example 740, N-(4-fluoro-3-methylphenyl)-3-(2-(((1r,4r)-4-hydroxy-4-methylcyclohexyl)amino)-2-oxoacetyl)-2-methyl-5,6,7,8-tetrahydroindolizine-1-carboxamide], for which, in data set [1], the cytotoxic concentration (CC50) at 7 days is above 30 µM. The EC50 in data set [2] is below 0.05 µM.

With `Cc1noc(C2(NC(=O)C(=O)c3cc(C(=O)Nc4ccc(F)c(C)c4)c4n3CCCC4)CC2)n1` [Example 418, N-(4-fluoro-3-methylphenyl)-3-(2-((1-(3-methyl-1,2,4-oxadiazol-5-yl)cyclopropyl)amino)-2-oxoacetyl)-5,6,7,8-tetrahydroidolizine-1-carboxamide], the 50% cytotoxic concentration (CC50) at 7 days in data set [1] was above 30 µM. Moreover, in data set [2], the EC50 was in the range of 0.05 to 0.499 µM.

Turning to `Cc1cc(NC(=O)c2c(C)c(C(=O)C(=O)Nc3ccc4c(c3)COB4O)n(C)c2C)ccc1F` [Example 678, N-(4-fluoro-3-methylphenyl)-5-(2-((1-hydroxy-1,3-dihydrobenzo[c][1,2]oxaborol-5-yl)amino)-2-oxoacetyl)-1,2,4-trimethyl-1H-pyrrole-3-carboxamide], in data set [1], the CC50 at 7 days was in the range of 5 to 30 µM. Further, the EC50 in data set [2] was below 0.05 µM.

In the case of `Cc1[nH]c(C(=O)C(=O)NC(C)(C)C)c(C)c1C(=O)Nc1ccc(F)c(Cl)c1` [Example 3, 5-(2-(tert-butylamino)-2-oxoacetyl)-N-(3-chloro-4-fluorophenyl)-2,4-dimethyl-1H-pyrrole-3-carboxamide], in data set [1], the CC50 at 7 days is 5 to 30 µM. Besides, the EC50 in data set [2] is below 0.05 µM.

For `Cc1cc(NC(=O)c2cc(C(=O)C(=O)NC(C)C)n3c2CCCC3)ccc1F` [Example 412, N-(4-fluoro-3-methylphenyl)-3-(2-(isopropylamino)-2-oxoacetyl)-5,6,7,8-tetrahydroindolizine-1-carboxamide], in data set [1], the 50% cytotoxic concentration (CC50) at 7 days lay in the range of 5 to 30 µM. Further, the concentration giving a half-maximal response (EC50) in data set [2] lay within 0.05 to 0.499 µM.

Compound `Cc1cc(Cl)cc(NC(=O)c2c(C)c(C(=O)C(=O)N[C@H]3CC[C@@H](O)CC3)n(C)c2C)c1` [Example 685, N-(3-chloro-5-methylphenyl)-5-(2-(((1s,4s)-4-hydroxycyclohexyl)amino)-2-oxoacetyl)-1,2,4-trimethyl-1H-pyrrole-3-carboxamide] showed a CC50 at 7 days in data set [1] above 30 µM. Besides, in data set [2], the concentration giving a half-maximal response (EC50) is below 0.05 µM.

Consider `Cc1c(C(=O)Nc2ccc(F)c(F)c2)c(C)n(C)c1C(=O)C(=O)NC12CCC(O)(CC1)CC2` [Example 335, N-(3,4-difluorophenyl)-5-(2-((4-hydroxybicyclo[2.2.2]octan-1-yl)amino)-2-oxoacetyl)-1,2,4-trimethyl-1H-pyrrole-3-carboxamide], for which the CC50 at 7 days in data set [1] is above 30 µM. Moreover, the half-maximal effective concentration (EC50) in data set [2] was below 0.05 µM.

In data set [1], `Cc1cc(NC(=O)C(=O)c2c(C)c(C(=O)Nc3ccc(F)c(C)c3)c(C)n2C)ccc1F` [Example 216, N-(4-fluoro-3-methylphenyl)-5-(2-((4-fluoro-3-methylphenyl)amino)-2-oxoacetyl)-1,2,4-trimethyl-1H-pyrrole-3-carboxamide] gave a half-maximal cytotoxic concentration (CC50) at 7 days of 5 to 30 µM. Besides, the concentration giving a half-maximal response (EC50) in data set [2] was below 0.05 µM.

`Cc1c(C(=O)Nc2ccnc(Cl)c2)c(C)n(C)c1C(=O)C(=O)NC(C)(C)CO` [Example 190, N-(2-chloropyridin-4-yl)-5-(2-((1-hydroxy-2-methylpropan-2-yl)amino)-2-oxoacetyl)-1,2,4-trimethyl-1H-pyrrole-3-carboxamide] showed a CC50 at 7 days in data set [1] above 30 µM. For the same compound, the EC50 in data set [2] was below 0.05 µM.

`Cc1cc(NC(=O)c2c(C)c(C(=O)C(=O)Nc3ccc(N4CCOCC4)nc3)n(C)c2C)ccc1F` [Example 266, N-(4-fluoro-3-methylphenyl)-1,2,4-trimethyl-5-(2-((6-morpholinopyridin-3-yl)amino)-2-oxoacetyl)-1H-pyrrol-3-carboxamide] came in with a CC50 at 7 days in data set [1] above 30 µM. Moreover, the concentration for a half-maximal effect (EC50) in data set [2] is 0.05 to 0.499 µM.

`Cc1csc(NC(=O)C(=O)c2c(C)c(C(=O)Nc3cc(F)c(F)c(F)c3)c(C)n2C)n1` [Example 323, 1,2,4-trimethyl-5-(2-((4-methylthiazol-2-yl)amino)-2-oxoacetyl)-N-(3,4,5-trifluorophenyl)-1H-pyrrole-3-carboxamide] had a half-maximal cytotoxic concentration (CC50) at 7 days in data set [1] of 5 to 30 µM. The concentration for a half-maximal effect (EC50) in data set [2] was below 0.05 µM.

Compound `Cc1cc(NC(=O)c2c(C)c(C(=O)NC(C)(C)CN3CCOCC3)n(C)c2C)ccc1F` [Example 349, N4-(4-fluoro-3-methylphenyl)-1,3,5-trimethyl-N2-(2-methyl-1-morpholinopropan-2-yl)-1H-pyrrole-2,4-dicarboxamide] gave a CC50 at 7 days in data set [1] above 30 µM. Moreover, the concentration giving a half-maximal response (EC50) in data set [2] is above 1 µM.

On to `Cc1cc(NC(=O)c2c(C)c(C(=O)C(=O)NC3(C)CCN(c4nccs4)CC3)n(C)c2C)ccc1F` [Example 699, N-(4-fluoro-3-methylphenyl)-1,2,4-trimethyl-5-(2-((4-mmethyl-1-(thiazol-2-yl)piperidin-4-yl)amino)-2-oxoacetyl)-1H-pyrrole-3-carboxamide], for which the CC50 at 7 days in data set [1] is 5 to 30 µM. Also, the EC50 in data set [2] is below 0.05 µM.

`CC(C)(C)NC(=O)C(=O)c1cc(C(=O)Nc2ccc(F)c(Cl)c2)c2n1CCC2` [Example 535, 5-(2-(tert-butylamino)-2-oxoacetyl)-N-(3-chloro-4-fluorophenyl)-2,3-dihydro-1H-pyrrolizine-7-carboxamide] gave a 50% cytotoxic concentration (CC50) at 7 days in data set [1] of 0.5 to 4.99 µM. In data set [2], the 50% effective concentration (EC50) was below 0.05 µM.

For the compound `Cc1cc(NC(=O)c2c(Cl)c(C(=O)C(=O)NCc3cnc(N)s3)n3c2CCC3)cnc1F` [Example 734, 5-(2-(((2-aminothiazol-5-yl)methyl)amino)-2-oxoacetyl)-6-chloro-N-(6-fluoro-5-methylpyridin-3-yl)-2,3-dihydro-1H-pyrrolizine-7-carboxamide], in data set [1], the CC50 at 7 days is above 30 µM. For the same compound, the EC50 in data set [2] was below 0.05 µM.
